Laboratory results as given in US20120014911A1, “Regulators of the Interferon-Alpha Receptor 1 (IFNAR1) Chain of the Interferon Receptor” (priority 2009, published 2012).

How the values were obtained:
[1] = tested on: IFNAR1 Ser535 phosphorylation; experiment: IFN-α-induced Ser535 (degron) phosphorylation of IFNAR1 in cells, IP-immunoblot with anti-pS535; assay type: cell-based, human; conditions: 293T cells, inhibitor pre-treatment, IFN-α
Experimental: (§1) Immunoprecipitation and immunoblotting procedures are described elsewhere (Fuchs et al, 1999, Oncogene 18:2039-2046). Protein degradation was carried out by cycloheximide (CHX, used at 20 μg/ml) chase. IFNAR1 internalization assay was carried out using the Fluorescence-based assay as described elsewhere (Kumar et al., 2007, J Cell Biol 179:935-950). BAY 43-9006 was obtained as a gift. Recombinant human IFN-a2 (Roferon) was purchased from Roche. Other reagents or inhibitors were purchased from commercial vendors.
(§2) Antibodies against Flag, GST and j3-actin (Sigma), HA (12CA, Roche), CK1α, PICD1/2 (PKCμ), PKD3 (PKCν), Tyk2, intracellular domain of hIFNAR1 and PKR, (Santa Cruz), anti-pan-phospho-tyrosine (4G10), phospho-Stat1 and Stat1 (Cell signaling), phospho-S710 of PKD2 (Biosource), PKD2 (Bethyl Laboratories), mIFNAR1 (Leinco) and ubiquitin (FK2, Biomol) were purchased. AA3, GB8 and EAl2 antibodies which recognize endogenous IFNAR1 (Goldman et al., 1999) and antibodies against IFNAR1 phosphorylated on Ser535 (pS535; (Kumar et al., 2004, J Biol Chem 279:46614-46620)) were described previously. Secondary antibodies conjugated to horseradish peroxidase were purchased from Chemicon and LI-COR. Immunoprecipitation and immunoblotting procedures are described elsewhere (Fuchs et al, 1999, Oncogene 18:2039-2046). Protein degradation was carried out by cycloheximide (CHX) chase in the presence of CHX (20 μg/ml). Immunoblot detection and quantification were carried out using the LI-COR's Odyssey Infrared Imaging System.

IFNAR1 = experiment: Cycloheximide chase of IFNAR1 degradation; assay type: cell-based, human; conditions: HeLa cells, CHX chase in the presence of IFN-α
Experimental: as §1
as §2, with “Immunoprecipitation and immunoblotting procedures are described elsewhere (Fuchs et al, 1999, Oncogene 18:2039-2046). Protein degradation was carried out by cycloheximide (CHX) chase in the presence of CHX (20 μg/ml).” left out

2fTGH cells = assay type: cell-based, human; conditions: inhibitor pre-treatment 1 h, IFN-α pulse 1-2 h, read 24 h later
Stat1 = Stat1 tyrosine phosphorylation in response to IFN-α, immunoblot; assay type: cell-based, human; conditions: HeLa cells, inhibitor pre-treatment 1 h, IFN-α pulse 15 min
protein kinase D (PKD) = conditions: literature (Gschwendt et al., 1996; Sharlow et al., 2008); cited from earlier work
[2] = tested on: vesicular stomatitis virus (VSV); assay type: cell-based; conditions: human 2fTGH cells, IFN-α 25-100 U/ml, titer 24 hr after treatments

Row | Structure (SMILES) | ligand-induced Ser535 phosphorylation of endogenous IFNAR1 [1] | rate of proteolytic turnover (ligand-stimulated degradation) of IFNAR1 (IFNAR1) | ISRE-driven luciferase transcriptional activity (2fTGH cells) | ligand-induced phosphorylation of Stat1 (Stat1) | inhibition of / specificity against PKD (protein kinase D (PKD)) | protective effect of IFN-α against VSV (viral titer) [2]
1 | O=C1NCCCc2c1oc1ccc(O)cc21 [CID755673] | significant inhibition | appreciable decrease | robustly augmented | noticeably prolonged | high specificity | –
2 | O.O.O.O.O.O.O.O.O.O=C([O-])[C@@H]1[O][Sb](=[O])([O][Sb]2(=[O])[O][C@H]([C@H](O)CO)[C@H](O)[C@H](C(=O)[O-])[O]2)[O][C@H]([C@H](O)CO)[C@@H]1O.[Na+].[Na+].[Na+] (stereo partly drawn) [SSG] | – | – | – | – | – | potentiates the protective effect
